Counter-ions that a name gives are not always drawn.
What was measured:
[1] = tested on: bacterial strains that express KPC β-lactamases; assay: Standard BLI potentiation MIC / synergy MIC assays, strains expressing KPC β-lactamases; assay type: cell-based; settings: in combination with a β-lactam; comparator Avibactam
Description: The experimental protocol was performed according to Clinical and Laboratory Standards Institute (CLSI) guidelines with modifications as described below (CLSI guidelines can be derived from the CLSI document M07-A9 published in January 2012: “Methods for Dilution Antimicrobial Susceptibility Tests for Bacteria That Grow Aerobically; Approved Standard-Ninth Edition”).
To prepare for MIC testing, frozen glycerol stocks of clinical isolates (Klebsiella pneumoniae, Eschericia coli, Enterobacter spp, Citrobacter spp, or Pseudomonas aeruginosa) were used to streak for isolated colonies on rich, non-selective, tryptic soy agar containing 5% sheep's blood (TSAB). Frozen glycerol stocks of laboratory engineered, isogenic E. coli strains, which contain cloned β-lactamase expressing plasmids were used to streak for isolated colonies on rich, selective LB agar supplemented with 25 μg/mL tetracycline to maintain the plasmid. All strains were incubated at 37° C. for 18-24 hrs.
On the day of testing, primary cultures were started by scraping off 5-10 colonies from the TSAB plates containing clinical strains or the tetracycline supplemented LB plates containing engineered strains. The clinical strain material was suspended in ˜5 mL of cation adjusted Mueller Hinton Broth (CAMHB) in 14 mL culture tubes. The engineered strain material was suspended in CAMHB (supplemented with 25 μg/mL tetracycline) in 14 mL culture tubes. All strains were incubated at 37° C. with aeration (200 rpm) for ˜2 hrs until the optical density at 600 nm (OD600) was >0.1.
The two compound components of the assay were each diluted in CAMHB and added to the 96-well broth microdilution assay plates. 50 μL of the β-lactam was added to each well of the assay plate in 2-fold dilutions with final concentrations ranging from 128 to 0.13 μg/mL. 25 μL of the BLI compound was added to all wells in the broth microdilution plates at a final concentration of 4 μg/mL. Inoculum cultures were prepared by standardizing the primary cultures to OD600=0.1 and then adding 20 μL of the adjusted primary culture per 1 mL CAMHB for clinical strains or CAMHB (supplemented with tetracycline at 100 μg/mL) for engineered strains, so that the final inoculum density was ˜10^5 colony forming units per milliliter. Diluted inoculum cultures were used to inoculate 25 μl, per well in 96-well broth microdilution assay plates. The final volume of each well was 100 μL and contained a β-lactam at different concentrations, a BLlcompound at 4 μg/mL concentration, the bacterial culture at an OD600 of approximately 0.001 and when necessary tetracycline at 25 μg/mL.
Plates were incubated for 18-20 hours at 37° C. with aeration (200 rpm). Following incubation, growth was confirmed visually placing plates over a viewing apparatus (stand with a mirror underneath) and then OD600 was measured using a SpectraMax 340PC384 plate reader (Molecular Devices, Sunnyvale, Calif.). Growth was defined as turbidity that could be detected with the naked eye or achieving minimum OD600 of 0.1. MIC values were defined as the lowest concentration producing no visible turbidity.
The synergy MIC (sMIC) assay determines the concentration of the BLI required to potentiate the activity of a fixed concentration of a β-lactam antibiotic against β-lactamase producing bacterial strains. The experimental protocol was performed according to Clinical and Laboratory Standards Institute (CLSI) guidelines with modifications as described below (CLSI guidelines can be derived from the CLSI document M07-A9 published in January 2012: “Methods for Dilution Antimicrobial Susceptibility Tests for Bacteria That Grow Aerobically; Approved Standard-Ninth Edition”). […]

[2] = tested on: bacterial strains that express the class D cephalosporinase OXA-15; assay: Standard BLI potentiation MIC / synergy MIC assays, strains expressing OXA-15; assay type: cell-based, E. coli; settings: in combination with a β-lactam; comparator Avibactam (CCC)
Procedure, shortened: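 Broth microdilution in cation-adjusted Mueller Hinton broth per CLSI M07-A9, ~10^5 CFU/mL, 18-20 h at 37 °C with aeration; engineered E. coli carrying β-lactamase plasmids kept on 25 μg/mL tetracycline. β-lactam MIC measured in 2-fold dilutions (128-0.13 μg/mL) with BLI fixed at 4 μg/mL; sMIC titrates BLI against a fixed β-lactam concentration. MIC = lowest concentration without visible turbidity.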

| Compound | activity and/or spectrum of activity against bacterial strains that express KPC β-lactamases, compared with Avibactam [1] | activity against bacterial strains that express the class D cephalosporinase OXA-15, compared with Avibactam [2] |
| --- | --- | --- |
| N=C1NCC(c2nnc([C@@H]3CC[C@@H]4CN3C(=O)N4OS(=O)(=O)O)o2)N1 (stereo partly drawn) [Compound 767, (2S,5R)-2-(5-(2-iminoimidazolidin-4-yl)-1,3,4-oxadiazol-2-yl)-7-oxo-1,6-diazabicyclo[3.2.1]octan-6-yl hydrogen sulfate] | more active than Avibactam for at least one, bacterial strain that expresses KPC β-lactamase and/or show a better spectrum of activity | more active than Avibactam |
| O=C1N2C[C@@H](CC[C@H]2c2nnc(C3CCNCC3)o2)N1OS(=O)(=O)O [Compound 711, (2S,5R)-7-oxo-2-(5-(piperidin-4-yl)-1,3,4-oxadiazol-2-yl)-1,6-diazabicyclo[3.2.1]octan-6-yl hydrogen sulfate] | more active than Avibactam for at least one, bacterial strain that expresses KPC β-lactamase and/or show a better spectrum of activity | more active than Avibactam |
| O=C1N2C[C@@H](CC[C@H]2c2nnc(CNC3CNC3)o2)N1OS(=O)(=O)O [Compound 726, (2S,5R)-2-(5-((azetidin-3-ylamino)methyl)-1,3,4-oxadiazol-2-yl)-7-oxo-1,6-diazabicyclo[3.2.1]octan-6-yl hydrogen sulfate] | more active than Avibactam for at least one, bacterial strain that expresses KPC β-lactamase and/or show a better spectrum of activity | more active than Avibactam |
| O=C1N2C[C@@H](CC[C@H]2c2nnc(CCNC3CCNCC3)o2)N1OS(=O)(=O)O [Compound 770, (2S,5R)-7-oxo-2-(5-(2-(piperidin-4-ylamino)ethyl)-1,3,4-oxadiazol-2-yl)-1,6-diazabicyclo[3.2.1]octan-6-yl hydrogen sulfate] | more active than Avibactam for at least one, bacterial strain that expresses KPC β-lactamase and/or show a better spectrum of activity | more active than Avibactam |
| O=C1N2C[C@@H](CC[C@H]2c2nnc(CCNC3CNC3)o2)N1OS(=O)(=O)O [Compound 745, (2S,5R)-2-(5-(2-(azetidin-3-ylamino)ethyl)-1,3,4-oxadiazol-2-yl)-7-oxo-1,6-diazabicyclo[3.2.1]octan-6-yl hydrogen sulfate] | more active than Avibactam for at least one, bacterial strain that expresses KPC β-lactamase and/or show a better spectrum of activity | more active than Avibactam |
| N=C(N)NC1CC(Cc2nnc([C@@H]3CC[C@@H]4CN3C(=O)N4OS(=O)(=O)O)o2)C1 (stereo partly drawn) [Compound 752, (2S,5R)-2-(5-((3-guanidinocyclobutyl)methyl)-1,3,4-oxadiazol-2-yl)-7-oxo-1,6-diazabicyclo[3.2.1]octan-6-yl hydrogen sulfate] | more active than Avibactam for at least one, bacterial strain that expresses KPC β-lactamase and/or show a better spectrum of activity | more active than Avibactam |
| O=C1N2C[C@@H](CC[C@H]2c2nnc(CCC3CNC3)o2)N1OS(=O)(=O)O [Compound 742, (2S,5R)-2-(5-(2-(azetidin-3-ybethyl)-1,3,4-oxadiazol-2-yl)-7-oxo-1,6-diazabicyclo[3.2.1]octan-6-yl hydrogen sulfate] | more active than Avibactam for at least one, bacterial strain that expresses KPC β-lactamase and/or show a better spectrum of activity | more active than Avibactam |
| N[C@@H]1CN[C@@H](c2nnc([C@@H]3CC[C@@H]4CN3C(=O)N4OS(=O)(=O)O)o2)C1 [Compound 763, (2S,5R)-2-(5-((2R,4S)-4-aminopyrrolidin-2-yl)-1,3,4-oxadiazol-2-yl)-7-oxo-1,6-diazabicyclo[3.2.1]octan-6-yl hydrogen sulfate] | more active than Avibactam for at least one, bacterial strain that expresses KPC β-lactamase and/or show a better spectrum of activity | more active than Avibactam |
| N[C@@H]1CN[C@H](c2nnc([C@@H]3CC[C@@H]4CN3C(=O)N4OS(=O)(=O)O)o2)C1 [Compound 760, (2S,5R)-2-(5-((2S,4S)-4-aminopyrrolidin-2-yl)-1,3,4-oxadiazol-2-yl)-7-oxo-1,6-diazabicyclo[3.2.1]octan-6-yl hydrogen sulfate] | more active than Avibactam for at least one, bacterial strain that expresses KPC β-lactamase and/or show a better spectrum of activity | more active than Avibactam |
| O=C1N2C[C@@H](CC[C@H]2c2nnc([C@H]3CCNC3)o2)N1OS(=O)(=O)O [Compound 758, (2S,5R)-7-oxo-2-(5-((S)-pyrrolidin-3-yl)-1,3,4-oxadiazol-2-yl)-1,6-diazabicyclo[3.2.1]octan-6-yl hydrogen sulfate] | more active than Avibactam for at least one, bacterial strain that expresses KPC β-lactamase and/or show a better spectrum of activity | more active than Avibactam |
| C[n+]1ccc(-c2nnc([C@@H]3CC[C@@H]4CN3C(=O)N4OS(=O)(=O)[O-])o2)cc1 [Compound 782, (2S,5R)-2-(5-(1-methylpyridin-1-ium-4-yl)-1,3,4-oxadiazol-2-yl)-7-oxo-1,6-diazabicyclo[3.2.1]octan-6-yl sulfate] | more active than Avibactam for at least one, bacterial strain that expresses KPC β-lactamase and/or show a better spectrum of activity | more active than Avibactam |
| N=C(N)N1CC(Cc2nnc([C@@H]3CC[C@@H]4CN3C(=O)N4OS(=O)(=O)O)o2)C1 [Compound 741, (2S,5R)-2-(5-((1-carbamimidoylazetidin-3-yl)methyl)-1,3,4-oxadiazol-2-yl)-7-oxo-1,6-diazabicyclo[3.2.1]octan-6-yl hydrogen sulfate] | more active than Avibactam for at least one, bacterial strain that expresses KPC β-lactamase and/or show a better spectrum of activity | more active than Avibactam |
| O=C1N2C[C@@H](CC[C@H]2c2nnc(C3CNC3)o2)N1OS(=O)(=O)O [Compound 708, (2S,5R)-2-(5-(azetidin-3-yl)-1,3,4-oxadiazol-2-yl)-7-oxo-1,6-diazabicyclo[3.2.1]octan-6-yl hydrogen sulfate] | more active than Avibactam for at least one, bacterial strain that expresses KPC β-lactamase and/or show a better spectrum of activity | more active than Avibactam |
